The source made the active and inactive calls. The calls are words filed in the database; no cut-off is given here.
Columns and labels:
[1] = biological target: T1, Eukaryotic elongation factor 2 kinase (Homo sapiens, UniProt O00418); assay: Inhibition of eEF2K (unknown origin) using peptide MH-1 as substrate after 2 hrs by ADP-Glo luminescent assay
T1 sequence (O00418 whole entry): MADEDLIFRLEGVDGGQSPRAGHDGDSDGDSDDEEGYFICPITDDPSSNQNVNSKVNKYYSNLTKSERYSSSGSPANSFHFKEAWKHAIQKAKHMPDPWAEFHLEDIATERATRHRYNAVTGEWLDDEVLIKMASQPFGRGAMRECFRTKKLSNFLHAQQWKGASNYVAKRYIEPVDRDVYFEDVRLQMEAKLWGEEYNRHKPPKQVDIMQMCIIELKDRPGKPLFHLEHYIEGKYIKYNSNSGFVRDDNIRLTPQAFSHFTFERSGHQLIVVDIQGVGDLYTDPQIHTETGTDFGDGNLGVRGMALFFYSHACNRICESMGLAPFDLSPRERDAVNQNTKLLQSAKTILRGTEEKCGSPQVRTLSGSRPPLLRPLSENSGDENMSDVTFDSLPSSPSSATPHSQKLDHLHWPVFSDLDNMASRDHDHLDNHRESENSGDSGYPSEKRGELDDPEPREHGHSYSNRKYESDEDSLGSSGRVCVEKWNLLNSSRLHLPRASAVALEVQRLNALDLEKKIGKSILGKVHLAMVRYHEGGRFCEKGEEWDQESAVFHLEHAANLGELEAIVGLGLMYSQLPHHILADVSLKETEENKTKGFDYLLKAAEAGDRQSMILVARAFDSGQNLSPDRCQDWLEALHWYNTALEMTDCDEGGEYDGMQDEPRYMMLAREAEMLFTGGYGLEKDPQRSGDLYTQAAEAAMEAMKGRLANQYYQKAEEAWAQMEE

[2] = tested on: MDA-MB-231; assay: Induction of apoptosis in human MDA-MB-231 cells assessed as membrane blebbing by phase contrast microscopy; assay type: functional, cell-based
[3] = tested on: MDA-MB-231; assay: Induction of apoptosis in human MDA-MB-231 cells assessed as formation of apoptotic bodies by phase contrast microscopy; assay type: functional, cell-based
[4] = tested on: MDA-MB-436; assay: Induction of apoptosis in human MDA-MB-436 cells assessed as formation of apoptotic bodies by phase contrast microscopy; assay type: functional, cell-based
[5] = tested on: MDA-MB-231; assay: Induction of apoptosis in human MDA-MB-231 cells assessed as DNA condensation after 12 to 36 hrs by Hoechst 33258 staining-based fluorescence assay; assay type: functional, cell-based
[6] = tested on: MDA-MB-436; assay: Induction of apoptosis in human MDA-MB-436 cells assessed as DNA condensation after 12 to 36 hrs by Hoechst 33258 staining-based fluorescence assay; assay type: functional, cell-based
[7] = tested on: MDA-MB-231; assay: Induction of apoptosis in human MDA-MB-231 cells assessed as loss of mitochondrial membrane potential after 12 to 36 hrs by rhodamine123 staining-based flow cytometric method; assay type: functional, cell-based
[8] = tested on: MDA-MB-436; assay: Induction of apoptosis in human MDA-MB-436 cells assessed as loss of mitochondrial membrane potential after 12 to 36 hrs by rhodamine123 staining-based flow cytometric method; assay type: functional, cell-based
[9] = tested on: MDA-MB-231; assay: Induction of apoptosis in human MDA-MB-231 cells assessed as upregulation of Bax expression after 12 to 36 hrs by Western blot method; assay type: functional, cell-based
[10] = tested on: MDA-MB-436; assay: Induction of apoptosis in human MDA-MB-436 cells assessed as upregulation of Bax expression after 12 to 36 hrs by Western blot method; assay type: functional, cell-based
[11] = tested on: MDA-MB-231; assay: Induction of apoptosis in human MDA-MB-231 cells assessed as downregulation of Bcl-2 expression after 12 to 36 hrs by Western blot method; assay type: functional, cell-based
[12] = tested on: MDA-MB-231; assay: Induction of apoptosis in human MDA-MB-231 cells assessed as increase in caspase-3 cleavage after 12 to 36 hrs by Western blot method; assay type: functional, cell-based
[13] = tested on: MDA-MB-231; assay: Induction of apoptosis in human MDA-MB-231 cells assessed as increase in caspase-8 cleavage after 12 to 36 hrs by Western blot method; assay type: functional, cell-based
[14] = tested on: MDA-MB-436; assay: Induction of apoptosis in human MDA-MB-436 cells assessed as increase in caspase-8 cleavage after 12 to 36 hrs by Western blot method; assay type: functional, cell-based
[15] = tested on: MDA-MB-231; assay: Induction of apoptosis in human MDA-MB-231 cells assessed as increase in PARP cleavage after 12 to 36 hrs by Western blot method; assay type: functional, cell-based
[16] = tested on: MDA-MB-436; assay: Induction of apoptosis in human MDA-MB-436 cells assessed as increase in PARP cleavage after 12 to 36 hrs by Western blot method; assay type: functional, cell-based
[17] = tested on: MDA-MB-231; assay: Antitumor activity against human MDA-MB-231 cells xenografted in ig dosed BALB/c nude mouse assessed as tumor growth inhibition administered once a day measured every 3 days for 24 days during compound dosing; assay type: functional, organism-based
[18] = tested on: MDA-MB-436; assay: Antitumor activity against human MDA-MB-436 cells xenografted in ig dosed BALB/c nude mouse assessed as tumor growth inhibition administered once a day measured every 3 days for 24 days during compound dosing; assay type: functional, organism-based
[19] = tested on: Mus musculus; assay: Toxicity in BALB/c nude mouse xenografted with human MDA-MB-231 cells assessed as body weight loss at 25 mg/kg, ig qd measured every 3 days for 24 days during compound dosing; assay type: organism-based; conditions: in vivo, po
[20] = tested on: Mus musculus; assay: Toxicity in BALB/c nude mouse xenografted with human MDA-MB-436 cells assessed as body weight loss at 25 mg/kg, ig qd measured every 3 days for 24 days during compound dosing; assay type: organism-based; conditions: in vivo, po, 576 h
[21] = tested on: Mus musculus; assay: Toxicity in BALB/c nude mouse xenografted with human MDA-MB-436 cells assessed as body weight loss at 50 to 100 mg/kg, ig qd measured every 3 days for 24 days during compound dosing; assay type: organism-based; conditions: in vivo, po, 576 h
[22] = tested on: Mus musculus; assay: Toxicity in BALB/c nude mouse xenografted with human MDA-MB-436 cells assessed as effect on kidney weight at 25 to 100 mg/kg, ig qd measured after 24 days; assay type: organism-based; conditions: in vivo, po, 576 h
[23] = tested on: Mus musculus; assay: Toxicity in BALB/c nude mouse xenografted with human MDA-MB-436 cells assessed as decrease in spleen weight at 100 mg/kg, ig qd measured after 24 days; assay type: organism-based; conditions: in vivo, po, 576 h
[24] = tested on: Mus musculus; assay: Toxicity in BALB/c nude mouse xenografted with human MDA-MB-231 cells assessed as decrease in spleen weight at 100 mg/kg, ig qd measured after 24 days; assay type: organism-based; conditions: in vivo, po, 576 h
[25] = tested on: MDA-MB-231; assay: Antiproliferative activity against human MDA-MB-231 cells xenografted in BALB/c nude mouse at 25 to 100 mg/kg, ig qd measured after 24 days by Ki-67 staining-based assay; assay type: functional, organism-based
[26] = tested on: MDA-MB-231; assay: Induction of apoptosis in human MDA-MB-231 cells xenografted in BALB/c nude mouse at 25 to 100 mg/kg, ig qd measured after 24 days by TUNEL assay; assay type: functional, organism-based
[27] = tested on: Mus musculus; assay: In vivo inhibition of eEF2K phosphorylation in tumor of BALB/c nude mouse xenografted with human MDA-MB-231 cells at 25 to 100 mg/kg, ig qd measured after 24 days by immunohistochemical analysis; assay type: functional, organism-based
[28] = tested on: MDA-MB-231; assay: Induction of apoptosis in human MDA-MB-231 cells xenografted in BALB/c nude mouse assessed as increase in PARP cleavage at 25 to 100 mg/kg, ig qd measured after 24 days by Western blot method; assay type: functional, organism-based
[29] = tested on: MDA-MB-231; assay: cells; conditions: Homo sapiens, MDA-MB-231, 24 h
Description: Antiproliferative activity against human MDA-MB-231 cells assessed as decrease in cell viability after 24 hrs by MTT assay

Compound: N#Cc1ccc(S(=O)(=O)NC(CC(=O)O)c2ccc(Cl)cc2Cl)cc1 (centres undefined)
- IC50 [1]: 5.5 µM
- Activity [2]: Active
- Activity [3]: Active
- Activity [4]: Active
- Activity [5]: Active
- Activity [6]: Active
- Activity [7]: Active
- Activity [8]: Active
- Activity [9]: Active
- Activity [10]: Active
- Activity [11]: Active
- Activity [12]: Active
- Activity [13]: Active
- Activity [14]: Active
- Activity [15]: Active
- Activity [16]: Active
- TGI [17]: Dose-dependent effect
- TGI [18]: Dose-dependent effect
- Activity [19]: Toxic
- Activity [20]: Toxic
- Activity [21]: Non-Toxic
- Activity [22]: Non-Toxic
- Activity [23]: Toxic
- Activity [24]: Toxic
- Activity [25]: Active
- Activity [26]: Active
- inhibition [27]: Active
- Activity [28]: Active
- IC50 [29]: 12.6 µM

— ChEMBL document CHEMBL4138216, “Design, synthesis and structure-activity relationship of a focused library of β-phenylalanine derivatives as novel eEF2K inhibitors with apoptosis-inducing mechanisms in breast cancer” (Eur J Med Chem, 2018)
